One test has as its target T1, murine COX-I (Mus musculus, UniProt P22437).
T1 sequence (P22437 27-602): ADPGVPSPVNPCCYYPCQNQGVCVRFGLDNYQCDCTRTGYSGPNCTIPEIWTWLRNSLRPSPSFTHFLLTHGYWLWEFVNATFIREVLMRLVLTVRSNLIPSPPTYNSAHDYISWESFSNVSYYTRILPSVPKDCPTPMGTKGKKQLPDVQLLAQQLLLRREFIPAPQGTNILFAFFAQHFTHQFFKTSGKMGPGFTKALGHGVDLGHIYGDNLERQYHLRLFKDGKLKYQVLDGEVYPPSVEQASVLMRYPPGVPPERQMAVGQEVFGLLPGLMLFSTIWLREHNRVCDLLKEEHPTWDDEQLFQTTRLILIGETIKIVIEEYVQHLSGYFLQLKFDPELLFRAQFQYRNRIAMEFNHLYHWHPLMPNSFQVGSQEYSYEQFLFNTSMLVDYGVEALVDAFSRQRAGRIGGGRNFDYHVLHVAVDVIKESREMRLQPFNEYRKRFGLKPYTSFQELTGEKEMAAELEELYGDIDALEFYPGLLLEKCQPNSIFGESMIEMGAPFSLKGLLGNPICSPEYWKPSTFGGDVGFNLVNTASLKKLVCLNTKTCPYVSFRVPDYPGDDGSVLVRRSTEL
As to the kind of experiment: COX I activity in vitro, murine (PGE2 by ELISA). On the technique in general: In an ELISA, binding on a coated surface is turned into a signal by an enzyme label.

The next test concerns the target human COX-I (Homo sapiens, UniProt P23219). Description: COX I activity in vitro, human (PGE2 by ELISA).
The target of a further test is T2, human COX-II (Homo sapiens, UniProt P35354).
T2 sequence (P35354 18-604): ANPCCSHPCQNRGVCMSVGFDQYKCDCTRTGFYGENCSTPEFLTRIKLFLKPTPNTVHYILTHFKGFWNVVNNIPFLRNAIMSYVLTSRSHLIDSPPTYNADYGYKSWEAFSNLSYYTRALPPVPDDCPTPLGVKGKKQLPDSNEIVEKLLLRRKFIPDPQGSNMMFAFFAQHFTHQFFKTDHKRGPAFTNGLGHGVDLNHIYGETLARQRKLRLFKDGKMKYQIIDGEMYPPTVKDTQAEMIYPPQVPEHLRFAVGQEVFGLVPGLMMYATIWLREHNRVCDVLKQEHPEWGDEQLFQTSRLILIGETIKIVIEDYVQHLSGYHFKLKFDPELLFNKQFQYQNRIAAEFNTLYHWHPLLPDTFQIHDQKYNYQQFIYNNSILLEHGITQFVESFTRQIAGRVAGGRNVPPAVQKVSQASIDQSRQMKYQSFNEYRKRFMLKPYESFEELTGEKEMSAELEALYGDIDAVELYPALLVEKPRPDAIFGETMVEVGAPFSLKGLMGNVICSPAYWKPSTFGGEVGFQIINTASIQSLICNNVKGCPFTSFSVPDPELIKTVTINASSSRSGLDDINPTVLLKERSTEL
As to the kind of experiment: COX II activity in vitro, human (PGE2 by ELISA).

Another test has as its target T3, murine COX-II (Mus musculus, UniProt Q05769).
T3 sequence (Q05769 18-604): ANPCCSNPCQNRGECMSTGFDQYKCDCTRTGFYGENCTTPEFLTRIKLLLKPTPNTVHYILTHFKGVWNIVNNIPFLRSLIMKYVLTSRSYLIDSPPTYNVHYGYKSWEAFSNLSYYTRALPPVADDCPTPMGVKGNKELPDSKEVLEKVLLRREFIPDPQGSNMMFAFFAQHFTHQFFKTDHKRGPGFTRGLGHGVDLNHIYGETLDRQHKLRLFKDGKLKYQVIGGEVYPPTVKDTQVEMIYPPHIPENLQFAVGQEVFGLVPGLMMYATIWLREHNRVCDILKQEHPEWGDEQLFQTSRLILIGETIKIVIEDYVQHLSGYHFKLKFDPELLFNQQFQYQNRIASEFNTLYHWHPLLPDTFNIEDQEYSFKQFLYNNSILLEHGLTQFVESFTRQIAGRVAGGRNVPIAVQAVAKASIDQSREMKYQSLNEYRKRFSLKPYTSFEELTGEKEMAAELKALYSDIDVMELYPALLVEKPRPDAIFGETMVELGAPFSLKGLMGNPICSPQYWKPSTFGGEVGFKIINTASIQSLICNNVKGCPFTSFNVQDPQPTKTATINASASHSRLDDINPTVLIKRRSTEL
As to the kind of experiment: biochemical.

The subject of a further test is carrageenan foot edema. Description: Rat Carrageenan Foot Pad Edema Test. The settings on record: oral, 3 hours after carrageenan, read-out: RAT PAW EDEMA % Inhibition; for inhibition at 20 mg/kg: @ 20 mg/kg body weight. It is filed as in vivo, rat (Male Sprague-Dawley). The method, then: Male Sprague-Dawley rats were selected in each group so that the average body weight was as close as possible. Rats were fasted with free access to water for over sixteen hours prior to the test. […] One hour later a subplantar injection of 0.1 mL of 1% solution of carrageenan/sterile 0.9% saline was administered and the volume of the injected foot was measured with a displacement plethysmometer connected to a pressure transducer with a digital indicator. Three hours after the injection of the carrageenan, the volume of the foot was again measured. […] Rat Carrageenan-induced Analgesia Test

Like-named read-outs stand apart in the source and are kept apart here.

human COX-I, sequence (P23219 24-599): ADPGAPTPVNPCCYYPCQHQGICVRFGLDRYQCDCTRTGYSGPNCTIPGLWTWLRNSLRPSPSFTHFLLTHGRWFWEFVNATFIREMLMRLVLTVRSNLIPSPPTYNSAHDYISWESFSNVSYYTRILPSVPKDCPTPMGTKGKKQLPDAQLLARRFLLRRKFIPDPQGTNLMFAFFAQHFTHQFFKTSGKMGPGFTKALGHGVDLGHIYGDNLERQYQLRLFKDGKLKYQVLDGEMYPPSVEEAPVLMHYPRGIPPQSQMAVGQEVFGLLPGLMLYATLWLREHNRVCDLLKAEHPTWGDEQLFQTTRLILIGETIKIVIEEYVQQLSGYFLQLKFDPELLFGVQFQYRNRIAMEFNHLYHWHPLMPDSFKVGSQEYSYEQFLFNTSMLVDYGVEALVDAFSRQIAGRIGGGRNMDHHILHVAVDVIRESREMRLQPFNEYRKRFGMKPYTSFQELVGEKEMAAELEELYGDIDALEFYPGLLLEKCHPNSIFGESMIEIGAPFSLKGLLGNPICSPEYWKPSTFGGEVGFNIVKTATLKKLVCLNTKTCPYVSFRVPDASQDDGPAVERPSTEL

`CS(=O)(=O)c1ccc(-c2sc(COc3ccc(Cl)cc3)nc2-c2ccc(F)cc2)cc1` [Example 1, 2-((4-Chlorophenoxy)methyl)-4-(4-fluorophenyl)-5-(4-methylsulfonylphenyl)thiazole]: the IC50 was over 100000 nM against murine COX-I, over 10000 nM at human COX-I and under 100 nM on human COX-II.
Turning to `CS(=O)(=O)c1ccc(-c2sc(-c3ccccc3Cl)nc2-c2ccccc2)cc1` [Example 2, 2-(2-Chlorophenyl)-4-phenyl-5-(4-methylsulfonylphenyl)thiazole], at human COX-II, the IC50 was under 100 nM.
On human COX-II, `CS(=O)(=O)c1ccc(-c2sc(-c3ccccc3Cl)nc2-c2cccc(F)c2)cc1` [Example 3, 2-(2-Chlorophenyl)-4-(3-fluorophenyl)-5-(4-methylsulfonylphenyl)thiazole] had an IC50 of under 100 nM.
In the case of `CS(=O)(=O)c1ccc(-c2sc(-c3ccccc3Cl)nc2-c2ccc(F)cc2F)cc1` [Example 4, 4-(2,4-Difluorophenyl)-2-(2-chlorophenyl)-5-(4-methylsulfonylphenyl)thiazole], the IC50 on murine COX-I is 6200 nM; at human COX-I (read-out: COX I ID50, human (h), 10 μM arachidonic acid) it was 70000 nM; against human COX-II it was under 100 nM; against murine COX-II, under 100 nM.
Consider `Cc1ccccc1-c1nc(-c2ccccc2Cl)sc1-c1ccc(S(C)(=O)=O)cc1` [Example 5, 2-(2-Chlorophenyl)-4-(2-methylphenyl)-5-(4-methylsulfonylphenyl)thiazole], for which the IC50 at human COX-I was over 100000 nM; on human COX-II, under 100 nM.
As for `CS(=O)(=O)c1ccc(-c2sc(-c3ccccc3Cl)nc2-c2ccccc2Cl)cc1` [Example 9, 2-(2-Chlorophenyl)-4-(2-chlorophenyl)-5-(4-methylsulfonylphenyl)thiazole], the IC50 is over 100000 nM against human COX-I and under 100 nM at human COX-II.
The term inhibition denotes the share of the control response that was lost under treatment. For `CS(=O)(=O)c1ccc(-c2sc(-c3ccccc3Cl)nc2-c2ccc(Cl)cc2)cc1` [Example 10, 2-(2-Chlorophenyl)-4-(4-chlorophenyl)-5-(4-methylsulfonylphenyl)thiazole], the IC50 against human COX-I was over 100000 nM; at human COX-II it was under 100 nM. Also, the inhibition at 20 mg/kg in the test on carrageenan foot edema turned out to be 14%.
On to `COc1ccc(-c2nc(-c3ccccc3Cl)sc2-c2ccc(S(C)(=O)=O)cc2)cc1` [Example 11, 2-(2-Chlorophenyl)-4-(4-methoxyphenyl)-5-(4-methylsulfonylphenyl)thiazole], for which the IC50 against human COX-I was over 100000 nM; against human COX-II, under 100 nM.
Consider `CS(=O)(=O)c1ccc(-c2sc(C(Br)S(=O)(=O)c3cccs3)nc2-c2ccc(F)cc2)cc1` (centres unmarked) [Example 14], for which the IC50 on murine COX-I is 39800 nM; on human COX-I it was over 100000 nM; against human COX-II it was 600 nM; against murine COX-II, 500 nM.
Regarding `Cc1ccc(-c2nc(-c3ccccc3Cl)sc2-c2ccc(S(C)(=O)=O)cc2)cc1` [Example 15, 2-(2-Chlorophenyl)-5-(4-methylsulfonylphenyl)-4-(4-methylphenyl)thiazole], the IC50 against human COX-I is over 100000 nM; at human COX-II it was 200 nM.
`CS(=O)(=O)c1ccc(-c2sc(CCCc3ccc(Br)cc3)nc2-c2ccc(F)cc2)cc1` [Example 21]: the IC50 at murine COX-I is over 10000 nM; on human COX-II, under 100 nM; against murine COX-II it was under 100 nM.
For `CS(=O)(=O)c1ccc(-c2sc(-c3ccc(Br)s3)nc2-c2ccc(F)cc2)cc1` [Example 25, 2-(5'-Bromo-2'-thienyl)-4-(4-fluorophenyl)-5-(4-methylsulfonylphenyl)thiazole], the IC50 at human COX-I is 2600 nM; against human COX-II, under 100 nM.
Turning to `NS(=O)(=O)c1ccc(-c2sc(-c3ccccc3Cl)nc2-c2ccc(F)cc2)cc1` [Example 32, 4-[4-(4-Fluorophenyl)-2-(2-chlorophenyl)-5-thiazolyl]benzensulfonamide], the IC50 at human COX-I is 700 nM; against human COX-II it was under 100 nM.
As to `NS(=O)(=O)c1ccc(-c2sc(COc3cc(Cl)cc(Cl)c3)nc2-c2ccc(F)cc2)cc1` [Example 34, 4-[2-((3,5-Dichlorophenoxy)methyl)-4-(4-fluorophenyl)-5-thiazolyl]benezenesulfonamide], the IC50 against human COX-I is under 100 nM.
On to `CS(=O)(=O)c1ccc(-c2sc(COc3cccc(Cl)c3)nc2-c2ccccc2F)cc1` [Example 36, 2-(3-Chlorophenoxy)methyl-4-(2-fluorophenyl)-5-[4-(methylsulfonyl)phenyl]thiazole], for which the IC50 was over 100000 nM at human COX-I and under 100 nM on human COX-II.
Take `CS(=O)(=O)c1ccc(-c2sc(COc3ccccc3Cl)nc2-c2ccc(F)cc2)cc1` [Example 38, 2-((2-Chlorophenoxy)methyl)-4-(4-fluorophenyl)-5-(4-methylsulfonylphenyl)thiazole]: the IC50 against human COX-I was over 100000 nM; against human COX-II, under 100 nM.
Consider `CS(=O)(=O)c1ccc(-c2sc(-c3ccccc3Cl)nc2-c2ccc(Br)cc2)cc1` [Example 40, 4-(4-Bromophenyl)-2-(2-chlorophenyl)-5-[4-(methylsulfonyl)phenyl]thiazole], for which the IC50 is over 100000 nM against human COX-I and under 100 nM on human COX-II.
Regarding `COc1ccc(OCc2nc(-c3ccc(F)cc3)c(-c3ccc(S(C)(=O)=O)cc3)s2)cc1` [Example 41, 4-(4-Fluorophenyl)-2-[(4-methoxyphenoxy)methyl]-5-[4-(methylsulfonyl)phenyl]thiazole], the IC50 is over 100000 nM against human COX-I and under 100 nM against human COX-II. The inhibition at 20 mg/kg in the test with carrageenan foot edema is 4%.
As to `CCNc1nc(-c2ccc(F)cc2)c(-c2ccc(S(C)(=O)=O)cc2)s1` [Example 50, 2-Ethylamino-4-(4-fluorophenyl)-5-(4-methylsulfonylphenyl)-thiazole], the IC50 on murine COX-I is over 10000 nM; on murine COX-II it was 300 nM. In addition, in the test with carrageenan foot edema, the inhibition at 10 mg/kg came to 11%.
Consider `CC(C)(C)Nc1nc(-c2ccc(F)cc2)c(-c2ccc(S(C)(=O)=O)cc2)s1` [Example 51, 2-tert-Butylamino-4-(4-fluorophenyl)-5-(4-methylsulfonylphenyl)thiazole], for which the results for the IC50 against murine COX-I and against murine COX-II were 11900 nM and 300 nM, respectively. Also, the inhibition at 10 mg/kg in the test on carrageenan foot edema worked out at 14%.
On to `CS(=O)(=O)c1ccc(-c2sc(Nc3cc(Cl)cc(Cl)c3)nc2-c2ccc(F)cc2)cc1` [Example 52, 2-(3,5-Dichlorophenylamino)-4-(4-fluorophenyl)-5-(4-methylsulfonylphenyl)thiazole], for which the IC50 against murine COX-I was over 100000 nM; on murine COX-II, 500 nM. The inhibition at 10 mg/kg in the test on carrageenan foot edema turned out to be 7%.

(Values after patent US5668161A, “Substituted thiazoles for the treatment of inflammation” (G.D. Searle & Co., priority 1996, dated 1997).)
